Experimental data: US20090023704A1, “Novel Compounds 737” (ASTRAZENECA AB, priority 2007, published 2009)

What follows are compounds tested against T1, GABAB receptor (GABABR1a/GABABR2 heterodimer) (Homo sapiens, UniProt O75899+Q9UBS5) (assay: [35S]-GTPγS binding assay, potency of PAM (GABA dose-response curves with and without test compound)). Conditions: potency of the positive allosteric modulator; GABA dose-response in presence of test compound.
T1 construct: expressed in transfected cells
T1 sequence (Q9UBS5 15-961 limits assumed): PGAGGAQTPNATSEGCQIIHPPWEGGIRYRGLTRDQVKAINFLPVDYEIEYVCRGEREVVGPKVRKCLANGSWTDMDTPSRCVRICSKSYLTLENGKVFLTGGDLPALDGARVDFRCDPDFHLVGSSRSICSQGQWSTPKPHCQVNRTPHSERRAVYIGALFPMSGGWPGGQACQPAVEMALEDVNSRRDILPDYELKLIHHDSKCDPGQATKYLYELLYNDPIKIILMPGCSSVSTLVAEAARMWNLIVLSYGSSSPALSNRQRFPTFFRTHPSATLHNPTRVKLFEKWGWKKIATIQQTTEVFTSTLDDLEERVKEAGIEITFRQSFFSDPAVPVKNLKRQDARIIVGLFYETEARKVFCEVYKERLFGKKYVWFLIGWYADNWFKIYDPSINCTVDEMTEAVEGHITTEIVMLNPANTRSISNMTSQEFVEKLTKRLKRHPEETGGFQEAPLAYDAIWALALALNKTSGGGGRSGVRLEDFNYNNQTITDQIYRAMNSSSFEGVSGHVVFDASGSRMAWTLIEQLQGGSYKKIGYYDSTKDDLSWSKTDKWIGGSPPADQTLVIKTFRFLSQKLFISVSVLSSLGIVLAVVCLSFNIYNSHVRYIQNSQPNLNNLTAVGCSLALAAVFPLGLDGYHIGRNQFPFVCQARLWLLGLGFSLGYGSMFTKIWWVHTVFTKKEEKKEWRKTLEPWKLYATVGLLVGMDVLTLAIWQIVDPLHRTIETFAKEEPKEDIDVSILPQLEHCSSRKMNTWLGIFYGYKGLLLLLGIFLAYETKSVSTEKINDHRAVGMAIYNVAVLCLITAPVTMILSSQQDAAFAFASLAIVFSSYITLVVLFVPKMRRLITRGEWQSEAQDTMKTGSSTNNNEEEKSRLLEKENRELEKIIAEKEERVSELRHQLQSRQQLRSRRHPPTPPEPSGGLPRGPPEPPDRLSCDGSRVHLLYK
T1 sequence (O75899 42-941): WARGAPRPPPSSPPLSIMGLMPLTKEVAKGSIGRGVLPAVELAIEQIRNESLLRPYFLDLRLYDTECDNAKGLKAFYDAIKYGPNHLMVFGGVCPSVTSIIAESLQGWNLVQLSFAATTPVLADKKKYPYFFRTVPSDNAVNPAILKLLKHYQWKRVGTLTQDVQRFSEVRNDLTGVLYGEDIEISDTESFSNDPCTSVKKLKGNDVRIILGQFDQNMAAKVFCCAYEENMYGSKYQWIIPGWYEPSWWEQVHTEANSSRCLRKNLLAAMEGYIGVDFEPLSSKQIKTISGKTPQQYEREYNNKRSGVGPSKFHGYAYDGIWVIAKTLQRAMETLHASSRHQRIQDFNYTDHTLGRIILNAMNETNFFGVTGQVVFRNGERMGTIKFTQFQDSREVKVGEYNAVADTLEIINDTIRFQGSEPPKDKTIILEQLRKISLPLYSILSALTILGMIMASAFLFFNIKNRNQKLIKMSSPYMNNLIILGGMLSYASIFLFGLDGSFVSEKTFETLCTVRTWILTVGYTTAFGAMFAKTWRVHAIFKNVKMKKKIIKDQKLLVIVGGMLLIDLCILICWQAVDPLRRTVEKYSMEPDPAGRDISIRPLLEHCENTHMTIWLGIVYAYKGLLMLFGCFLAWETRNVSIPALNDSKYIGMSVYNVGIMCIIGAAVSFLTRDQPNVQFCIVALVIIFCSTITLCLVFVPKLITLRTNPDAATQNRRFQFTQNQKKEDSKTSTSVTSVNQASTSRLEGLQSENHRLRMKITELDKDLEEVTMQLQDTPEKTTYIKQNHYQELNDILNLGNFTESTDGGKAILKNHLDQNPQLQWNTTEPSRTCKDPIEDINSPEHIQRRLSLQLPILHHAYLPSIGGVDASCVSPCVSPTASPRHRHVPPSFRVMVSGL
Format: biochemical
Excerpt: GABABR1a and GABABR2 were cloned from human brain cDNA and subcloned into pCI-Neo (Promega) and pALTER-1 (Promega), respectively. A GABABR1a-Gαqi5 fusion protein expression vector was constructed using the pCI-Neo-GABABR1a cDNA plasmid and pLEC1-Gαqi5 (Molecular Devices, CA). In order to make the Gαqi5 pertussis toxin insensitive, Cys356 was mutated to Gly using standard PCR methodology with the primers 5′-[…]-3′ (forward) and 5′-GCGGCCG […]-3′ (reverse). The Gαqi5mut cDNA was ligated into the BamHI and NotI sites of pcDNA3.0 (Invitrogen). The GABAB R1a coding sequence was amplified by PCR from pCI-Neo-GABABR1a using the primers, 5′-[…]-3′ (forward) and 5′-[…]-3′ (reverse) and subcloned into the BamHI site of pcDNA3.0-Gαqi5mut.
For generation of a cell line expressing the GABABR1a/GABABR2 heterodimer, GABABR1a plasmid DNA (4 μg) GABABR2 plasmid DNA (4 μg) and lipofectamine (24 μl) were mixed in 5 ml OptiMEM and incubated for 45 minutes at room temperature. The cells were exposed to the transfection medium for 5 hours, which then was replaced with culture medium. The cells were cultured for an additional 10 days before selection agents (300 μg/ml hygromycin and 400 μg/ml geneticin) were added. Twenty-four days after transfection, single cell sorting into 96-well plates by flow cytometry was performed using a FACS Vantage SE (Becton Dickinson, Palo Alto, Calif.). After expansion, the GABAB receptor functional response was tested using the FLIPR assay described below. The clone with the highest functional response was collected, expanded and then subcloned by single cell sorting. The clonal cell line with the highest peak response in the FLIPR was used in the present study.
For generation of a stable cell line expressing GABABR1a-Gαqi5 fusion protein and GABABR2, GABABR1a-Gαqi5mut plasmid DNA (8 μg) GABABR2 plasmid DNA (8 μg) and lipofectamine (24 μl) were mixed in 5 ml OptiMEM and incubated for 45 minutes at room temperature. The cells were exposed to the transfection medium for 5 hours, which then was replaced with culture medium. After forty-eight hours, the cells were detached and seeded in 6 well plates (2000 cells/well) and grown in culture medium supplemented with geneticin (400 μg/ml) and zeocin (250 μg/ml). After 4 days, cells from single colonies were collected and transferred to a 24-well plate. After 10 days, the cell clones were seeded in T-25 flasks and grown for another 16 days before they were tested for GABAB receptor mediated functional response. […] The clonal cell line that gave the highest peak response in the FLIPR was used in the present study.
[^35S]-GTPγS binding assays were performed at 30° C. for 45 min in membrane buffer (100 mM NaCl, 5 mM MgCl2, 1 mM EDTA, 50 mM HEPES, pH 7.4) containing 0.025 μg/μl of membrane protein (prepared from the cell lines described above) with 0.01% bovine serum albumin (fatty acid free), 10 μM GDP, 10 μM DTT and 0.53 nM [^35S]-GTPγS (Amersham-Pharmacia Biotech) in a final volume of 200 μl. Non-specific binding was determined in the presence of 20 μM GTPγS. The reaction was started by the addition of GABA at concentration between 1 mM and 0.1 nM in the presence or absence of the required concentration of PAM. The reaction was terminated by addition of ice-cold wash buffer (50 mM Tris-HCl, 5 mM MgCl2, 50 mM NaCl, pH 7.4) followed by rapid filtration under vacuum through Printed Filtermat A glass fiber filters (Wallac) (0.05% PEI treated) using a Micro 96 Harvester (Skatron Instruments). The filters were dried for 30 min at 50° C., then a paraffin scintillant pad was melted onto the filters and the bound radioactivity was determined using a 1450 Microbeta Trilux (Wallac) scintillation counter.
GABA dose-response curves in the presence and absence of test compounds were constructed using the 4-parameter logistic equation, y=ymax+((ymin−ymax)/1+(x/C)^D), where C=EC50 and D=slope factor.
In the case of `CCc1nc2c(c(=O)n(Cc3ccc(Cl)cc3)c(=O)n2CC(O)C(F)(F)F)n1C` (stereo not shown) [Example 23, 1-(4-chlorobenzyl)-8-ethyl-7-methyl-3-(3,3,3-trifluoro-2-hydroxypropyl)-3,7-dihydro-1H-purine-2,6-dione], the EC50 is reported as 2.1 µM. For `CCc1nc2c(c(=O)n(Cc3ccc(Cl)cc3)c(=O)n2Cc2ccc(C(F)(F)F)cc2)n1C` [Example 31, 1-(4-chlorobenzyl)-8-ethyl-7-methyl-3-[4-(trifluoromethyl)benzyl]-3,7-dihydro-1H-purine-2,6-dione], the EC50 was 5.5 µM. In the case of `CCCn1c(=O)n(Cc2ccc(Cl)cc2)c(=O)c2c1nc(N1CCSCC1)n2C` [Example 88, 1-(4-chlorobenzyl)-7-methyl-3-propyl-8-thiomorpholin-4-yl-3,7-dihydro-1H-purine-2,6-dione], the EC50 is reported as 3.7 µM. `CCCn1c(=O)n(Cc2ccc(Cl)cc2Cl)c(=O)c2c1nc(CC)n2C` [Example 60, 1-(2,4-Dichlorobenzyl)-8-ethyl-7-methyl-3-propyl-3,7-dihydro-1H-purine-2,6-dione] gave an EC50 of 17.2 µM. `CCc1nc2c(c(=O)n(Cc3ccc(Cl)cc3)c(=O)n2Cc2ccc(OC(F)F)cc2)n1C` [Example 19, 1-(4-Chlorobenzyl)-3-[4-(difluoromethoxy)benzyl]-8-ethyl-7-methyl-3,7-dihydro-1H-purine-2,6-dione] was tested, and the EC50 was 3.7 µM. Compound `CCc1nc2c(c(=O)n(Cc3ccc(Cl)cc3)c(=O)n2CCO[Si](C)(C)C(C)(C)C)n1C` [Example 29, 3-(2-{[tert-butyl(dimethyl)silyl]oxy}ethyl)-1-(4-chlorobenzyl)-8-ethyl-7-methyl-3,7-dihydro-1H-purine-2,6-dione] has an EC50 of 8.6 µM. For `CCCn1c(=O)n(Cc2ccc(Cl)cc2)c(=O)c2c1nc(N(C)CCOC)n2C` [Example 91, 1-(4-chlorobenzyl)-8-[(2-methoxyethyl)(methyl)amino]-7-methyl-3-propyl-3,7-dihydro-1H-purine-2,6-dione], the EC50 was 8.3 µM. `CCCn1c(=O)n(Cc2ccc(OCc3ccccc3)cc2)c(=O)c2c1nc(CC)n2C` [Example 56, 1-[4-(Benzyloxy)benzyl]-8-ethyl-7-methyl-3-propyl-3,7-dihydro-1H-purine-2,6-dione] gave an EC50 of 15 µM. `C=CCn1c(=O)n(Cc2ccc(Cl)cc2)c(=O)c2c1nc(CC)n2C` [Example 12, 3-Allyl-1-(4-chlorobenzyl)-8-ethyl-7-methyl-3,7-dihydro-1H-purine-2,6-dione] gave an EC50 of 6 µM. `CCc1nc2c(c(=O)n(Cc3ccc(Cl)cc3)c(=O)n2CC2CCCCC2)n1C` [Example 20, 1-(4-Chlorobenzyl)-3-(cyclohexylmethyl)-8-ethyl-7-methyl-3,7-dihydro-1H-purine-2,6-dione] was tested, and the EC50 was 3 µM. With `COc1nc2c(c(=O)n(Cc3ccc(Cl)cc3)c(=O)n2CCCC(F)(F)F)n1C` [Example 81, 1-(4-chlorobenzyl)-8-methoxy-7-methyl-3-(4,4,4-trifluorobutyl)-3,7-dihydro-1H-purine-2,6-dione] the EC50 was 11.5 µM. For `COc1nc2c(c(=O)n(Cc3ccc(Cl)cc3)c(=O)n2CCC(F)(F)F)n1C` [Example 80, 1-(4-chlorobenzyl)-8-methoxy-7-methyl-3-(3,3,3-trifluoropropyl)-3,7-dihydro-1H-purine-2,6-dione], the EC50 was 5.2 µM. For `CCc1nc2c(c(=O)n(Cc3ccc(Cl)c(Cl)c3)c(=O)n2CC[Si](C)(C)C)n1C` [Example 43, 1-(3,4-Dichlorobenzyl)-8-ethyl-7-methyl-3-[2-(trimethylsilyl)ethyl]-3,7-dihydro-1H-purine-2,6-dione], the EC50 was 2.7 µM. `CCCn1c(=O)n(Cc2ccc(Cl)cc2)c(=O)c2c1nc(N1CCN(C)CC1)n2C` [Example 87, 1-(4-chlorobenzyl)-7-methyl-8-(4-methylpiperazin-1-yl)-3-propyl-3,7-dihydro-1H-purine-2,6-dione] gave an EC50 of 15.6 µM. `CCC(=O)Cn1c(=O)n(Cc2ccc(Cl)cc2)c(=O)c2c1nc(CC)n2C` [Example 33, 1-(4-chlorobenzyl)-8-ethyl-7-methyl-3-(2-oxobutyl)-3,7-dihydro-1H-purine-2,6-dione] showed an EC50 of 3.7 µM. Work on `CCc1nc2c(c(=O)n(Cc3ccc(Cl)cc3)c(=O)n2C[C@H]2CCC(=O)N2)n1C` [Example 6, 1-(4-Chlorobenzyl)-8-ethyl-7-methyl-3-{[(2R)-5-oxopyrrolidin-2-yl]methyl}-3,7-dihydro-1H-purine-2,6-dione] yielded an EC50 of 16.4 µM. With `CCc1nc2c(c(=O)n(Cc3ccc(Cl)cc3)c(=O)n2C[Si](C)(C)C)n1C` [Example 9, 1-(4-Chlorobenzyl)-8-ethyl-7-methyl-3-[(trimethylsilyl)methyl]-3,7-dihydro-1H-purine-2,6-dione] the EC50 was 2.1 µM. With `CCCn1c(=O)n(Cc2nc3cc(C(F)(F)F)ccc3s2)c(=O)c2c1nc(CC)n2C` [Example 66, 8-Ethyl-7-methyl-3-propyl-1-{[5-(trifluoromethyl)-1,3-benzothiazol-2-yl]methyl}-3,7-dihydro-1H-purine-2,6-dione] the EC50 was 17.3 µM. Compound `CCc1nc2c(c(=O)n(Cc3ccc(Cl)cc3)c(=O)n2CCN(CC)CC)n1C` [Example 27, 1-(4-chlorobenzyl)-3-[2-(diethylamino)ethyl]-8-ethyl-7-methyl-3,7-dihydro-1H-purine-2,6-dione] has an EC50 of 15.6 µM. `CCCn1c(=O)n(Cc2ccc(Cl)cc2)c(=O)c2c1nc(N1CCC[C@H]1CN1CCCC1)n2C` [Example 94, 1-(4-chlorobenzyl)-7-methyl-3-propyl-8-[(2S)-2-(pyrrolidin-1-ylmethyl)pyrrolidin-1-yl]-3,7-dihydro-1H-purine-2,6-dione] was tested, and the EC50 was 9 µM. `CCCn1c(=O)n(CCc2ccc(Cl)cc2)c(=O)c2c1nc(CC)n2C` [Example 63, 1-[2-(4-Chlorophenyl)ethyl]-8-ethyl-7-methyl-3-propyl-3,7-dihydro-1H-purine-2,6-dione] was tested, and the EC50 was 13.8 µM. Compound `CCCn1c(=O)n(Cc2cccc(Cl)c2)c(=O)c2c1nc(CC)n2C` [Example 67, 1-(3-Chlorobenzyl)-8-ethyl-7-methyl-3-propyl-3,7-dihydro-1H-purine-2,6-dione] has an EC50 of 15.1 µM. With `CCCn1c(=O)n(Cc2ccc(Cl)cc2)c(=O)c2c1nc(N1CCC1)n2C` [Example 83, 8-azetidin-1-yl-1-(4-chlorobenzyl)-7-methyl-3-propyl-3,7-dihydro-1H-purine-2,6-dione] the EC50 was 7.8 µM. Work on `CCCn1c(=O)n(Cc2ccc(Br)cc2)c(=O)c2c1nc(CC)n2C` [Example 61, 1-(4-Bromobenzyl)-8-ethyl-7-methyl-3-propyl-3,7-dihydro-1H-purine-2,6-dione] yielded an EC50 of 4.2 µM. Compound `CCCn1c(=O)n(Cc2ccc(Cl)cc2)c(=O)c2c1nc(N1CCOCC1)n2C` [Example 92, 1-(4-chlorobenzyl)-7-methyl-8-morpholin-4-yl-3-propyl-3,7-dihydro-1H-purine-2,6-dione] has an EC50 of 7.1 µM. `CCc1nc2c(c(=O)n(Cc3ccc(Cl)cc3)c(=O)n2CCOC)n1C` [Example 32, 1-(4-chlorobenzyl)-8-ethyl-3-(2-methoxyethyl)-7-methyl-3,7-dihydro-1H-purine-2,6-dione] was tested, and the EC50 was 7.9 µM. `CCc1nc2c(c(=O)n(Cc3ccc(Cl)cc3)c(=O)n2CCCS(=O)(=O)C(C)(C)C)n1C` [Example 34, 3-[3-(tert-butylsulfonyl)propyl]-1-(4-chlorobenzyl)-8-ethyl-7-methyl-3,7-dihydro-1H-purine-2,6-dione] showed an EC50 of 11.3 µM. `CCc1nc2c(c(=O)n(Cc3ccc(Cl)cc3)c(=O)n2CCC(C)(C)C)n1C` [Example 2, 1-(4-Chlorobenzyl)-3-(3,3-dimethylbutyl)-8-ethyl-7-methyl-3,7-dihydro-1H-purine-2,6-dione] gave an EC50 of 1.5 µM.
